Reference: patent US9121801B2, “Methods and devices for cellular analysis” (BioMarker Strategies, LLC, priority 2007, dated 2015)
Read-outs that look alike come from different tables or passages of the source.

What was measured:
[1] = tested on: FOS mRNA; conditions: in culture; susceptible cell lines A431, CAL27, and HN11; cited from earlier work
[2] = tested on: FOS expression; conditions: 14 days treatment, cited from earlier work
[3] = tested on: FOS mRNA; assay: FOS mRNA induction by quantitative RT-PCR in MCF-7 cells; type: cell-based, human; conditions: 100 ng/ml of EGF ligand, incubation 0-45 minutes
Method: A functional measurement of cellular activation includes FOS mRNA induction determined by quantitative RT-PCR. FOS is an early response gene associated with the EGFR pathway. In an experiment, MCF-7 cells were grown in normal growth conditions in 6 well plates to 80% confluency. Cells were gently scraped and exposed to increasing shear forces (0-800 dyne/cm^2 through the Harvard Pipetter) in addition to increasing incubation times (0-45 minutes) in the presence or absence of 100 ng/ml of EGF ligand (Sigma) prior to RNA extraction. FOS mRNA induction peaks at 30-45 minutes and returns to basal levels in approximately 60 minutes. FOS induction is also stimulated as a result of incubation with EGF ligand. […] See FIGS. 17 and 18 for a graphical depiction of the results obtained.

[4] = EGFR-sensitive A431, CAL27, and HN11 xenograft tumors, gefitinib (A431), erlotinib (CAL27, HN11)
[5] = resistant strains, xenografts, gefitinib (HuCCT1), erlotinib (Hep2)

Row | Compound | FOS mRNA levels [1] | increase in FOS expression in vivo [2, 4] | increase in FOS expression in vivo [2, 5] | FOS induction [3]
1 | C#Cc1cccc(Nc2ncnc3cc(OCCOC)c(OCCOC)cc23)c1 [erlotinib] | decrease FOS mRNA levels | abrogate the increase in FOS expression | not in resistant strains | 
2 | COc1cc2ncnc(Nc3ccc(F)c(Cl)c3)c2cc1OCCCN1CCOCC1 [gefitinib] | decrease FOS mRNA levels | abrogate the increase in FOS expression | not in resistant strains | 
3 | EGF ligand: growth factor, tumor-cell stimulatory ligand (Sigma) (NSDSECPLSHDGYCLHDGVCMYIEALDKYACNCVVGYIGERCQYRDLKWWELR; Epidermal growth factor; UniProt P01133 971-1023, looked up) |  |  |  | stimulated
